# Test results: PMC6273595, “Study of the Activity and Possible Mechanism of Action of a Reversible Inhibitor of Recombinant Human KAT-2: A Promising Lead in Neurodegenerative and Cognitive Disorders” (Molecules, 2016)
# Where two headings read alike, the source gives them in different places.
# What was measured:
# [1] = target: T1, KAT-2 (kynurenine aminotransferase-2) (Homo sapiens, UniProt Q8N5Z0); assay: HPLC assay of KYN to KYNA conversion by recombinant human KAT-2; type: biochemical
# T1 construct: gene AADAT; recombinant KAT-2
# [2] = target: T1, KAT-2 (kynurenine aminotransferase-2); assay: HPLC assay of KYN to KYNA conversion by recombinant human KAT-2, % inhibition at […]; type: biochemical
# T1 sequence (Q8N5Z0 30-425): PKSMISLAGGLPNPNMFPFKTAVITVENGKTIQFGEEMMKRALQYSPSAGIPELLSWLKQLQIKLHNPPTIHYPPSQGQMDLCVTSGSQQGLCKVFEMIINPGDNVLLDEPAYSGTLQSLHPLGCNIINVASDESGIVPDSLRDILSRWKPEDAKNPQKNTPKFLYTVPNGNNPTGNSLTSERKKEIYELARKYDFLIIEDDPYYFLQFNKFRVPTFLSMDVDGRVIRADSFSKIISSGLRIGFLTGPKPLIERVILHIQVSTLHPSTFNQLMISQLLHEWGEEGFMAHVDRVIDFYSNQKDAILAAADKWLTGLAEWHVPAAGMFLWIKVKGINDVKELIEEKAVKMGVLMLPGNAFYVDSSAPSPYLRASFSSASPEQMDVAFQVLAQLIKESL
compound,measurement,setting,value
C[C@H]1COc2c(N3CCN(N)CC3)c(F)cc3c(=O)c(C(=O)O)cn1c23 [BFF-122],IC50,[1]; read-out: IC50,15 to 20 µM
N[C@H]1Cc2ccccc2N(O)C1=O [PF-04859989],IC50,[1],1 to 3 µM
"CCS(=O)(=O)c1ccc(C(=O)C[C@H](N)C(=O)O)cc1 [(S)-ESBA, (S)-4-(Ethylsulfonyl)benzoylalanine]",inhibition at 200 µM,[2],20%
